Values quoted from earlier work as cited in patent publication US20240390265A1, “FORMULATIONS FOR TRANSDERMAL ADMINISTRATION OF ACTIVE AGENTS” (DYVE BIOSCIENCES, INC., priority 2022, published 2024).

Tests used:
[1] = target: T1, BRAF (Homo sapiens, UniProt P15056); settings: read-out: IC50 (B-Raf inhibitor)
Target sequence in this assay (P15056 2-766 limits assumed): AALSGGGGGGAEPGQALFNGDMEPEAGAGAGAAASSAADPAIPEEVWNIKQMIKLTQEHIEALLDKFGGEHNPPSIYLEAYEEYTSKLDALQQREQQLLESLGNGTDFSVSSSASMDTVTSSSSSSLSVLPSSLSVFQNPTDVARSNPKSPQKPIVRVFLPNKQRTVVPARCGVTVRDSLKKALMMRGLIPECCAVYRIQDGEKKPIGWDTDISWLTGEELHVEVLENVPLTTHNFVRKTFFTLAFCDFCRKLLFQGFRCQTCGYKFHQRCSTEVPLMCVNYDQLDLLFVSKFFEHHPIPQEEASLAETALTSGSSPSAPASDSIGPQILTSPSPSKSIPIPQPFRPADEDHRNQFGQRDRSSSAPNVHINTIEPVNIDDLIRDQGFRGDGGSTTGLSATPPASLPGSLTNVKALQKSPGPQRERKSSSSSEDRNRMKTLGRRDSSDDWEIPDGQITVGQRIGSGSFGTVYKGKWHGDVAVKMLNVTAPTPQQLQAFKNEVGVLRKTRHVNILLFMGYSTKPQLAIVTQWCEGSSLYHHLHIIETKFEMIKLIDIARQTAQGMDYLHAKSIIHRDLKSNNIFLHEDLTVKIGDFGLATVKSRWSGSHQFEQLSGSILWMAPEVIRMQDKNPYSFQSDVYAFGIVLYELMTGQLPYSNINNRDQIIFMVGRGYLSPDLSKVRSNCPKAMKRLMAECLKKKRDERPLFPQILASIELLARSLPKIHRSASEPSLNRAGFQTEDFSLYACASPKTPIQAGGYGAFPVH

[2] = test system: tumor models harboring KRAS G12D mutations
[3] = test system: KRAS G12D mutant tumor cells
[4] = target: T1, BRAF
Target sequence in this assay (P15056 whole entry): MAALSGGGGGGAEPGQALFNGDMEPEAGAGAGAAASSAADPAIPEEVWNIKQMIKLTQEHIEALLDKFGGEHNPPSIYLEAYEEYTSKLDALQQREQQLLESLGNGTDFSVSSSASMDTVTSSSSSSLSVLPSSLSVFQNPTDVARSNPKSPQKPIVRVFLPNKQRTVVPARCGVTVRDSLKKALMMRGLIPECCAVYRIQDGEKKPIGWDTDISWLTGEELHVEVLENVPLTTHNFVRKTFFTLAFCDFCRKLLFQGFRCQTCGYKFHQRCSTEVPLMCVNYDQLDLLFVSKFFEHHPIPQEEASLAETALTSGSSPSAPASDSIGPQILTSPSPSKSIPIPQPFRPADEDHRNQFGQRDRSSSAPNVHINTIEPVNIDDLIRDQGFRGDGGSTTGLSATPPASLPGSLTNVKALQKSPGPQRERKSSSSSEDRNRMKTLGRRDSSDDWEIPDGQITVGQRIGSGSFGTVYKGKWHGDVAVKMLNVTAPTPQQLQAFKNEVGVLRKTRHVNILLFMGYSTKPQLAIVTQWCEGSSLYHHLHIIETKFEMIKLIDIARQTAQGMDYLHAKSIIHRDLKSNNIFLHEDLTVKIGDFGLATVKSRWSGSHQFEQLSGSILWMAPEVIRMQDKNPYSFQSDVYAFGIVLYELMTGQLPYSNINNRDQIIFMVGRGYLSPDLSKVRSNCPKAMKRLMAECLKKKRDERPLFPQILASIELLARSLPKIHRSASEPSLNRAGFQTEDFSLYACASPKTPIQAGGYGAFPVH

[5] = test system: cell line and primary human tumor derived xenograft models; settings: at well-tolerated doses
[6] = in vivo
[7] = test system: panel of 456 human kinases
[8] = target: CRAF (Homo sapiens, UniProt P04049)
CRAF, sequence (P04049 whole entry): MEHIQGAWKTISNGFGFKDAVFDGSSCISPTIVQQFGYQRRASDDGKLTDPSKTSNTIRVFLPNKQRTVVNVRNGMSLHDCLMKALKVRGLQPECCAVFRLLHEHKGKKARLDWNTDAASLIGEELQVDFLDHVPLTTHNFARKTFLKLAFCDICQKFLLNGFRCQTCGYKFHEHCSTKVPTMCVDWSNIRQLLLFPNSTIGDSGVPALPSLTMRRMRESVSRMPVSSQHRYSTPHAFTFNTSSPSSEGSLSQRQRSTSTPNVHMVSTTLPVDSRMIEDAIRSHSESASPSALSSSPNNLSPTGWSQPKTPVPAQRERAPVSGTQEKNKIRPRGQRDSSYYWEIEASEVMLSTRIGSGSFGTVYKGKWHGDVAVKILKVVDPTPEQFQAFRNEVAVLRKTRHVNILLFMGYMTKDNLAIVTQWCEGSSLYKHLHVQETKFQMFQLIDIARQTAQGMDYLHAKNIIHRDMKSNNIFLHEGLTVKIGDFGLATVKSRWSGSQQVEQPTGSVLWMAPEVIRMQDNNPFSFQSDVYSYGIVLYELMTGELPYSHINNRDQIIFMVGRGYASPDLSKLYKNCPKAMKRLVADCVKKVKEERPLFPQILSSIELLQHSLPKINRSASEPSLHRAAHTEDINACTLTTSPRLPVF

In the case of `Cc1ccc2c(Nc3cccc(OC(F)(F)F)c3)nccc2c1Nc1ncccc1-c1ncnc2nc[nH]c12` [LUT014, 6-methyl-5-N-[3-(7H-purin-6-yl)pyridin-2-yl]-1-N-[3-(trifluoromethoxy)phenyl]isoquinoline-1,5-diamine], the IC50 [1] is given as 11.7 nM.

In the case of `C#Cc1c(F)ccc2cc(O)cc(-c3ncc4c(N5CC6CCC(C5)N6)nc(OC[C@@]56CCCN5C[C@H](F)C6)nc4c3F)c12` [MRTX1133], the “in vivo efficacy in tumor models harboring KRAS G12D mutations” value [2] is given as “marked in vivo efficacy” and the “activity in cellular assays” value [3] is given as “single digit nanomolar”.

For `Cc1ccc(NC(=O)c2ccnc(C(F)(F)F)c2)cc1-c1cc(OCCO)nc(N2CCOCC2)c1` [Naporafenib], the “concentrations inhibiting BRAF kinase activity” value [4] is listed as “picomolar”, the “effect on tumors in xenograft models” value [5] is listed as “tumor regression” and the oral bioavailability [6] is listed as “orally bioavailable”. The “selectivity against a panel of 456 human kinases” value [7] was “high degree of selectivity” and the “concentrations inhibiting CRAF kinase activity” value [8] was “picomolar”.
